Laboratory results published in patent US8673912B2, “Crystalline Forms on N-[3-fluoro-4-({6-(methyloxy)-7-[(3-morpholin-4-ylpropyl)oxy]-quinolin-4-yl}oxy)phenyl]-N′-(4-fluorophenyl)cyclopropane-1,1-dicarboxamide” (Exelixis, Inc., priority 2009, dated 2014).

Assays:
Type in all cases: physicochemical
[1] = Gravimetric Vapor Sorption Study (GVS); conditions: crystalline Form A prepared in Example 1.1.2
Procedure: The GVS study was run using a standard procedure. Samples were run on a Hiden IGASorp moisture sorption analyzer running CFRSorp software. Sample sizes were typically 10 mg. A moisture adsorption desorption isotherm was performed as outlined below. All samples were loaded/unloaded at typical room humidity and temperature (40% RH, 25° C.) and analyzed afterwards by XRPD. The standard isotherm run is a cycle starting at 40% RH→90%→Dry finishing at 35% RH at 25° C. and 10% RH intervals.

[2] = Karl Fisher water content determination; conditions: crystalline Form A prepared in Example 1.1.2; measured in duplicate
Procedure: The study was done using a standard procedure. Water contents were measured on a Mettler Toledo DL39 Coulometer using Hydranal AG Oven reagent and an argon purge. Samples were introduced into the vessel as solids weighed out onto a platinum TGA pan which was connected to a subaseal via tweezers to avoid water ingress. Approximately 10 mg of sample was used per titration and each analysis was performed in duplicate. The water content of crystalline Compound (I) prepared in Example 1.1.2 was measured in duplicate and gave an average value of 0.1%.

[3] = Relative thermodynamic stability of crystalline forms; conditions: forms A and B are enantiotropically related
[4] = Retention of crystalline form in final tablet (XRPD); conditions: micronized, high shear wet granulation, compression, optional aqueous film coat
Procedure: The tablets in this example were prepared with an optional aqueous film coat. Preparation of the intra-granular component involved a high shear wet granulation to make granules to be used for further processing. All components used are conventional for the wet granulation process except for the sodium lauryl sulfate which was added as a bioenhancement agent to enhance the bioavailability of the drug substance. The crystalline Compound (I), form B, was used in a micronized form for bioenhancement, which means that the density of the drug substance is low making it difficult to handle and process. High shear wet granulation is used to produce dense material that is easier to process and make into tablets. The preparation of the extra-granular component was a compression step to make the tablets out of the granules and the added excipients. The excipients used are conventional to allow for the formation of the tablet. The crystalline form of Compound 1, Form B, was retained in the final tablet as confirmed by XRPD.

weight gain (GVS) ([1]; 25° C. and 90% humidity) [%]	reanalysis of the sample by XRPD after GVS ([1]; after isotherm cycle 40% RH to 90% to dry to 35% RH at 25° C.)	water content (Karl Fisher), average value [2] [%]	temperatures at which the form is believed to be the most thermodynamically stable form [3]	crystalline form in the final tablet as confirmed by XRPD [4]	Structure (SMILES)
0.5	no change in form	0.1	–	–	COc1cc2c(Oc3ccc(NC(=O)C4(C(=O)Nc5ccc(F)cc5)CC4)cc3F)ccnc2cc1OCCCN1CCOCC1 [Compound (I), N-[3-fluoro-4-({6-(methyloxy)-7-[(3-morpholin-4-ylpropyl)oxy]quinolin-4-yl}oxy)phenyl]-N′-(4-fluorophenyl)cyclopropane-1,1-dicarboxamide]
–	–	–	less than 75 °C	–	COc1cc2c(Oc3ccc(NC(=O)C4(C(=O)Nc5ccc(F)cc5)CC4)cc3F)ccnc2cc1OCCCN1CCOCC1 [Form A, N-[3-fluoro-4-({6-(methyloxy)-7-[(3-morpholin-4-ylpropyl)oxy]quinolin-4-yl}oxy)phenyl]-N′-(4-fluorophenyl)cyclopropane-1,1-dicarboxamide]
–	–	–	greater than 75 °C	retained	COc1cc2c(Oc3ccc(NC(=O)C4(C(=O)Nc5ccc(F)cc5)CC4)cc3F)ccnc2cc1OCCCN1CCOCC1 [Form B, N-[3-fluoro-4-({6-(methyloxy)-7-[(3-morpholin-4-ylpropyl)oxy]quinolin-4-yl}oxy)phenyl]-N′-(4-fluorophenyl)cyclopropane-1,1-dicarboxamide]
